Experimental data published in patent US6664231B1, “Anti-fungal peptides” (priority 1993, dated 2003).
“And” between values parts separate entries of the source, which are not always exact repeats. Equal entries are not always repeated. Where two headings read alike, the source gives them in different places. Square brackets hold non-standard residues; d marks the D form. Ends that are not written are not given here. Peptide text beside a SMILES is read from it. Phe(4-NH2) = Nc1ccc(C[C@H](N)C(=O)O)cc1; 1Nal = N[C@@H](Cc1cccc2ccccc12)C(=O)O; d2Nal = N[C@H](Cc1ccc2ccccc2c1)C(=O)O; Orn = NCCC[C@H](N)C(=O)O

Experiments:
[1] = tested on: mouse RAW 264.7 cells
Method: (§1) An in vitro LPS neutralization screening assay for evaluation of Domain III derived peptides was developed (as described in co-owned and co-pending U.S. patent application Ser. No. 08/306,473) which provides both a measure of efficacy of each peptide (EC50) and of the toxicity/growth inhibition of each peptide (IC50).
(§2) The cells were counted and their concentration adjusted to 2×10^5 cells/mL and 100 μL aliquots were added to each well of a 96-well microtitre plate. […] This incubation was performed in the absence or presence of peptides in varying concentrations between 25 ng/mL and 50 μg/mL. […] Cell proliferation was quantitatively measured by the addition of 1 μCi/well [^3H]-thymidine 5 hours after the time of initiation of the assay. After the 15-hour incubation, labeled cells were harvested onto glass fiber filters with a cell harvester (Inotech Biosystems, INB-384, Sample Processing and Filter Counting System, Lansing, Mich.).

[2] = tested on: mouse RAW 264.7 cells incubated with E. coli O113 LPS; conditions: RAW 264.7 cells with E. coli O113 LPS; concentration reversing LPS growth inhibition by 50%
Method: as §1, §2

[3] = tested on: C. albicans (CA-1, Strain SLU-1); test: Radial diffusion assay; type: cell-based, Candida albicans; conditions: for C. albicans pmol/30 mm^2 zone: pmoles of peptide added to well to achieve a 30 mm^2 zone, PROBIT analysis, crude or purified (P′) peptide
Procedure, shortened: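 Peptides, serially diluted 2-fold in D-PBS (top ~1 mg/mL), diffused 3 h at 37° C into pH 7.4 phosphate-buffered agarose seeded with 1×10^6 CFU/mL yeast, before overnight growth under a 6% Sabouraud overlayer. Net inhibition zones measured after Coomassie staining; PROBIT fit of log pmol vs area gave pmol for 30 mm^2.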

[4] = RAW 264.7 cell growth inhibited by 50%
[5] = nanomoles required to achieve a net 30 mm^2 zone (log titration curve)

Row | Compound | IC50 (toxicity/growth inhibition of peptide) [1, 4] | In Vitro LPS Neutralization EC50 [2] | C. albicans pmol/30 mm^2 zone [3] | also measured
1 | CCCCCCCC(=O)N[C@H](CCCCN)C(=O)N[C@H](Cc1c[nH]c2ccccc12)C(=O)N[C@H](CC(C)C)C(=O)N[C@@H](C(=O)N[C@H](CCC(N)=O)C(=O)N[C@H](CC(C)C)C(=O)N[C@H](Cc1ccccc1)C(=O)N[C@H](Cc1c[nH]cn1)C(=O)N[C@H](CCCCN)C(=O)N[C@H](CCCCN)C(N)=O)[C@H](C)CC [XMP.414] | 10.96 ± 0.52 µg/mL | 1.91 ± 0.04 µg/mL |  | 
2 | H-KKLLLQLKK-NH2 [XMP.383P] | NA (NA for IC50 means no evidence of decreased RAW cell growth at up to 50 μg/ml) | NA (NA for EC50 means no evidence neutralization of LPS at up to 50 μg/ml) |  | 
3 | PWAIQLFHKK-NH2 (C-terminus assumed) [XMP.387P] | NA (NA for IC50 means no evidence of decreased RAW cell growth at up to 50 μg/ml) | 15.53 ± 2.18 µg/mL |  | 
4 | H-SKWAIQLKK-NH2 [XMP.409P] | NA (NA for IC50 means no evidence of decreased RAW cell growth at up to 50 μg/ml) | NA (NA for EC50 means no evidence neutralization of LPS at up to 50 μg/ml) |  | 
5 | H-KKLQLLLKK-NH2 [XMP.381P] | NA (NA for IC50 means no evidence of decreased RAW cell growth at up to 50 μg/ml) | NA (NA for EC50 means no evidence neutralization of LPS at up to 50 μg/ml) |  | 
6 | H-PWLIQLFHKK-NH2 [XMP.355P] | NA (NA for IC50 means no evidence of decreased RAW cell growth at up to 50 μg/ml) | 1.08 ± 0.05 µg/mL |  | 
7 | KKKWAIQLKK-NH2 [XMP.377P] | NA (NA for IC50 means no evidence of decreased RAW cell growth at up to 50 μg/ml) | NA (NA for EC50 means no evidence neutralization of LPS at up to 50 μg/ml) |  | 
8 | KKPWAIQLKK-NH2 (C-terminus assumed) [XMP.379P] | NA (NA for IC50 means no evidence of decreased RAW cell growth at up to 50 μg/ml) | NA (NA for EC50 means no evidence neutralization of LPS at up to 50 μg/ml) |  | 
9 | CC[C@H](C)[C@H](NC(=O)[C@H](CC(C)C)NC(=O)[C@@H](Cc1ccc2ccccc2c1)NC(=O)[C@H](CCCCN)NC(=O)[C@@H](N)CCCCN)C(=O)N[C@@H](CC(C)C)C(=O)N[C@@H](CC(C)C)C(=O)N[C@@H](CCCCN)C(=O)N[C@@H](CCCCN)C(N)=O [XMP.347P] (H-KK[d2Nal]LILLKK-NH2) |  | 1.65 ± 0.09 µg/mL |  | IC50 (toxicity/growth inhibition of peptide) [1]: >25 µg/mL
10 | CC[C@@H](C)[C@@H](NC(=O)[C@@H](CCC(N)=O)NC(=O)[C@@H](CC(C)C)NC(=O)[C@@H](Cc1ccccc1)NC(=O)[C@@H](Cc1c[nH]cn1)NC(=O)[C@@H](CCCCN)NC(=O)[C@@H](CCCCN)NC(C)=O)C(=O)N[C@H](CC(C)C)C(=O)N[C@H](Cc1c[nH]c2ccccc12)C(=O)N[C@H](CCCCN)C(N)=O [XMP.368P] |  | 1.95 ± 0.11 µg/mL |  | IC50 (toxicity/growth inhibition of peptide) [1]: >25 µg/mL
11 | H-KPWLIQLFHKK-NH2 [XMP.390P] | NA (NA for IC50 means no evidence of decreased RAW cell growth at up to 50 μg/ml) | 3.97 ± 0.21 µg/mL |  | 
12 | CC[C@H](C)[C@H](NC(=O)[C@H](CC(C)C)NC(=O)[C@H](Cc1c[nH]c2ccccc12)NC(=O)[C@@H](N)CCCCN)C(=O)N[C@@H](CCCN)C(=O)N[C@@H](CC(C)C)C(=O)N[C@@H](Cc1ccccc1)C(=O)N[C@@H](Cc1c[nH]cn1)C(=O)N[C@@H](CCCCN)C(=O)N[C@@H](CCCCN)C(N)=O [XMP.369P] (H-KWLI[Orn]LFHKK-NH2) | NA (NA for IC50 means no evidence of decreased RAW cell growth at up to 50 μg/ml) | 12.09 ± 0.43 µg/mL |  | 
13 | KWAIQLFHKK-NH2 [XMP.386P] | NA (NA for IC50 means no evidence of decreased RAW cell growth at up to 50 μg/ml) | 9.75 ± 1.02 µg/mL |  | 
14 | GWLIQLFHKK-NH2 [XMP.388P] | NA (NA for IC50 means no evidence of decreased RAW cell growth at up to 50 μg/ml) | 8.08 ± 1.52 µg/mL |  | 
15 | CC[C@H](C)[C@H](NC(=O)[C@H](CC(C)C)NC(=O)[C@H](Cc1c[nH]c2ccccc12)NC(=O)[C@H](CCCN)NC(=O)[C@@H](N)CCCN)C(=O)N[C@@H](CCC(N)=O)C(=O)N[C@@H](CC(C)C)C(=O)N[C@@H](CCCN)C(=O)N[C@@H](CCCN)C(N)=O [XMP 338] | NA (NA for IC50 means no evidence of decreased RAW cell growth at up to 50 μg/ml) | >25 µg/mL |  | 
16 | H-SKVKWLIQLFHKK-NH2 [XMP.284P] |  | 4.72 ± 0.08/ μg/ml and 3.57 ± 0.09 μg/ml |  | 

Row | Compound | IC50 (toxicity/growth inhibition of peptide) [1, 4] | In Vitro LPS Neutralization EC50 [2] | C. albicans pmol/30 mm^2 zone [3] | also measured
17 | CC[C@H](C)[C@H](NC(=O)[C@H](CC(C)C)NC(=O)[C@H](Cc1c[nH]c2ccccc12)NC(=O)[C@H](Cc1ccc(N)cc1)NC(=O)[C@@H](NC(=O)[C@H](CCCCN)NC(=O)[C@H](CO)NC(=O)[C@@H](N)CCCCN)C(C)C)C(=O)N[C@@H](Cc1ccc(N)cc1)C(=O)N[C@@H](CC(C)C)C(=O)N[C@@H](Cc1ccccc1)C(=O)N[C@@H](Cc1c[nH]cn1)C(=O)N[C@@H](CCCCN)C(=O)N[C@@H](CCCCN)C(N)=O [XMP.238] (H-KSKV[Phe(4-NH2)]WLI[Phe(4-NH2)]LFHKK-NH2) |  |  | 2,702 pmol/30 mm^2 zone | 
18 | H-KSKVFWLIQLFHKK-NH2 [XMP.95] |  |  | >1398 pmol/30 mm^2 zone | 
19 | CC[C@H](C)[C@H](NC(=O)[C@H](CC(C)C)NC(=O)[C@H](Cc1ccc(N)cc1)NC(=O)[C@H](CCCCN)NC(=O)[C@@H](N)CCCCN)C(=O)N[C@@H](CCC(N)=O)C(=O)N[C@@H](CC(C)C)C(=O)N[C@@H](CCCCN)C(=O)N[C@@H](CCCCN)C(N)=O [XMP.346] (H-KK[Phe(4-NH2)]LIQLKK-NH2) |  |  | 640 pmol/30 mm^2 zone | 
20 | H-VKWLIQLFH-NH2 [Peptide 296] |  |  |  | Plate Assay (nmol), crude peptide activity [3, 5]: >5.573 nmol
21 | H-WLIQL-NH2 [XMP.320] |  |  | >4,055 pmol/30 mm^2 zone | 
22 | H-SKVKWLIQLFH-NH2 [Peptide 287] |  |  |  | Plate Assay (nmol), crude peptide activity [3, 5]: >3.509 nmol
23 | H-LIQLFHK-NH2 [XMP.310] |  |  | >9,475 pmol/30 mm^2 zone | 
24 | H-KVKWLIQLFHK-NH2 [XMP.288] |  |  | >3,062 pmol/30 mm^2 zone | C. albicans pmol/30 mm^2 zone ([3]; listed as XMP.288P′): 279 pmol/30 mm^2 zone
25 | CC[C@H](C)[C@H](NC(=O)[C@H](CC(C)C)NC(=O)[C@H](Cc1cccc2ccccc12)NC(=O)[C@H](CCCCN)NC(=O)[C@@H](NC(=O)[C@H](CCCCN)NC(=O)[C@H](CO)NC(=O)[C@@H](N)CCCCN)C(C)C)C(=O)N[C@@H](CCC(N)=O)C(=O)N[C@@H](CC(C)C)C(=O)N[C@@H](Cc1ccccc1)C(=O)N[C@@H](Cc1c[nH]cn1)C(=O)N[C@@H](CCCCN)C(=O)N[C@@H](CCCCN)C(N)=O [XMP.116] (H-KSKVK[1Nal]LIQLFHKK-NH2) |  |  | 670 pmol/30 mm^2 zone | 
26 | CC[C@H](C)[C@H](NC(=O)[C@H](CC(C)C)NC(=O)[C@H](Cc1cccc2ccccc12)NC(=O)CNC(=O)[C@@H](NC(=O)[C@H](CCCCN)NC(=O)[C@H](CO)NC(=O)[C@@H](N)CCCCN)C(C)C)C(=O)N[C@@H](CCC(N)=O)C(=O)N[C@@H](Cc1cccc2ccccc12)C(=O)N[C@@H](Cc1ccccc1)C(=O)N[C@@H](Cc1c[nH]cn1)C(=O)N[C@@H](CCCCN)C(=O)N[C@@H](CCCCN)C(N)=O [XMP.223] (H-KSKVG[1Nal]LIQ[1Nal]FHKK-NH2) |  |  | b (No detectable activity up to 5 μg/well) | 
27 | H-KVKWLIQLFH-NH2 [XMP.291] |  |  | >5,039 pmol/30 mm^2 zone | 
28 | H-KSKVGWLAQLFHKK-NH2 [XMP.38] |  |  | 391 pmol/30 mm^2 zone | 
29 | H-KSKVGWLIQLWHKK-NH2 [XMP.82] |  |  | 518 pmol/30 mm^2 zone | 
30 | H-KSKVGWLIFLFHKKKSKVGWLIFLFHKK-NH2 [XMP.275] |  |  | b (No detectable activity up to 5 μg/well) | 
31 | H-KWLIQL-NH2 [compound 315] |  |  |  | Plate Assay (nmol), pure peptide activity ([3]; HPLC-purified peptide, nanomoles required to achieve a net 30 mm^2 zone (log titration curve)): >12.853 nmol; Plate Assay (nmol), crude peptide activity [3, 5]: >5.069 nmol
